This note sets out measurements from PMC6445123 (Scientific Reports, 2019).

Numbering of substitutions follows the chain as printed. “And” between values parts separate entries of the source, which are not always exact repeats. Equal values may be shown once.

In one assay the target is T1, Casp6-K284A-LS-SS (Homo sapiens, UniProt P55212, K284A).
T1 construct: obtained by co-expression and purification of LS and SS subunits of WT, L200A or K284A Casp6 from E. coli; His (C); made in house; host or cells: E. coli BL21(DE3)pLysS
T1 sequence (P55212 24-179 limits assumed): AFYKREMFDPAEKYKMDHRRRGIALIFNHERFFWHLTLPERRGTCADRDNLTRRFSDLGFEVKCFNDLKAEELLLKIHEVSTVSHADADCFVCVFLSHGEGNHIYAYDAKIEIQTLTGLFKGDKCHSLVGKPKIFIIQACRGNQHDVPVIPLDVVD
T1 sequence (P55212 194-293 K284A limits assumed): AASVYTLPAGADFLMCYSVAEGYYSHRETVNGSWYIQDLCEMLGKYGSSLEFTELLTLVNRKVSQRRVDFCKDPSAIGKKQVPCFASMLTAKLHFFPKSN
As to the kind of experiment: C13 dose-response and global-fit kinetics on Casp6-K284A-LS-SS. Format: biochemical. The source says: Figure 4 Compounds S10G and C13 inhibit Casp6 through a noncompetitive mode of inhibition. (a) Michaelis-Menten kinetic plots of Casp6 enzymatic activity in presence of 1% DMSO or increasing doses S10G (top) and C13 (bottom). Data points represent mean ± SD of three independent experiments. (b) Lineweaver-Burk plots of Casp6 inhibition with S10G (top) and C13 (bottom). Red circle indicates the point where lines converge. (c) The relationship between the slopes of lines in Lineweaver-Burk plot analyses in panel (b) and inhibitor concentration. (d) Plots of IC50 values for S10G (top) and C13 (bottom) with varying concentrations of Ac-VEID-AFC substrate. Data points represent mean ± SD from three independent experiments for each substrate concentration. (e) Binding model of C13 into CASP6 putative allosteric site, derived from molecular docking. Left: C13 (green sticks) occupies the putative allosteric site (white surface and lines; Ala-mutated residues L200 and K284 shown as purple sticks). Right: predicted interactions with Casp6 allosteric pocket residues (pink balls polar, circled blue or red for basic and acidic, respectively. Green balls = hydrophobic. Dotted-arrow: blue and green for backbone and sidechain hydrogen-bond interactions, respectively. Blue shade = solvent exposed area). Dose-response curves of C13 for Casp6-WT and Casp6-K284A (f), and copurified LS and SS of Casp6-WT-LS-SS, Casp6-L200A-LS-SS, and Casp6-K284A-LS-SS (g). Data represent mean ± SD from at least three independent experiments. (h) Global fit of kinetics data to a noncompetitive (mixed) inhibition model for Casp6-WT-LS-SS (left panel, R^2 = 0.9635), Casp6-L200A-LS-SS (middle panel, R^2 = 0.9699), and Casp6-K284A-LS-SS (right panel, R^2 = 0.9794) in the presence of 0–50 µM C13. Data points on the graph represent the mean ± SD, and calculated Ki values represent mean ± standard error (SE) from three independent experiments.
To determine the importance of C13 interactions with L200 and K284 for C13 binding in the Casp6 allosteric pocket, we have generated Casp6-L200A and Casp6-K284A mutants and investigated inhibition with C13. In contrast to Casp6-WT, purified Casp6-L200A and Casp6-K284A underwent poor self-processing when overexpressed in E. coli from a construct encoding a full-length Casp6 (Fig. S5). Casp6-L200A partially self-processed at the TETD23 site generating full-length Casp6 and Casp6 without a prodomain (ΔCasp6). Casp6-K284A underwent complete processing at the TETD23 site but, in contrast to Casp6-WT, it only partially self-cleaved at the TEVD193 site generating ΔCasp6, LS-L and SS fragments (Fig. S5). […] Fully processed forms of Casp6-WT-LS-SS, Casp6-L200A-LS-SS, and Casp6-K284A-LS-SS were obtained by co-expression and purification of LS and SS subunits of WT, L200A or K284A Casp6 from E. coli (Fig. S5). […]
(§1) Compounds, S10G (2.5 µM, 4.2 µM, 10 µM), and C13 (5 µM, 14 µM, 50 µM), were added to 20 nM active site titrated Casp6 and enzyme activity was measured with eight different Ac-VEID-AFC substrate concentrations (5.0 μM–200 μM) using fluorescence-based Casp6 activity assay as above. The apparent KM and Vmax values were determined through nonlinear regression analysis of Michaelis-Menten plots (v vs. [S]) using GraphPad Prism 5. The inhibition mode was determined from the pattern of converging Lineweaver-Burk plots (1/v vs. 1/[S])[54]. […]

Another assay deals with T2, Casp6-WT-LS-SS (Homo sapiens, UniProt P55212).
T2 construct: obtained by co-expression and purification of LS and SS subunits of WT, L200A or K284A Casp6 from E. coli; His (C); made in house; host or cells: E. coli BL21(DE3)pLysS
T2 sequence (P55212 24-179 limits assumed): T1 sequence (P55212 24-179 limits assumed)
T2 sequence (P55212 194-293 limits assumed): T1 sequence (P55212 194-293 K284A limits assumed) with A91K
As to the kind of experiment: C13 dose-response and global-fit kinetics on Casp6-WT-LS-SS. It is filed as biochemical.
Source text: (§2) Figure 4 Compounds S10G and C13 inhibit Casp6 through a noncompetitive mode of inhibition. (a) Michaelis-Menten kinetic plots of Casp6 enzymatic activity in presence of 1% DMSO or increasing doses S10G (top) and C13 (bottom). Data points represent mean ± SD of three independent experiments. (b) Lineweaver-Burk plots of Casp6 inhibition with S10G (top) and C13 (bottom). Red circle indicates the point where lines converge. (c) The relationship between the slopes of lines in Lineweaver-Burk plot analyses in panel (b) and inhibitor concentration. (d) Plots of IC50 values for S10G (top) and C13 (bottom) with varying concentrations of Ac-VEID-AFC substrate. Data points represent mean ± SD from three independent experiments for each substrate concentration. (e) Binding model of C13 into CASP6 putative allosteric site, derived from molecular docking. Left: C13 (green sticks) occupies the putative allosteric site (white surface and lines; Ala-mutated residues L200 and K284 shown as purple sticks). Right: predicted interactions with Casp6 allosteric pocket residues (pink balls polar, circled blue or red for basic and acidic, respectively. Green balls = hydrophobic. Dotted-arrow: blue and green for backbone and sidechain hydrogen-bond interactions, respectively. Blue shade = solvent exposed area). […] Data points on the graph represent the mean ± SD, and calculated Ki values represent mean ± standard error (SE) from three independent experiments. […]
as §1

Assay [1] addresses T3, Casp6-K284A (Homo sapiens, UniProt P55212, K284A).
T3 construct: it only partially self-cleaved at the TEVD193 site generating ΔCasp6, LS-L and SS fragments; His (C); made in house; host or cells: E. coli BL21(DE3)pLysS
T3 sequence (P55212 24-193): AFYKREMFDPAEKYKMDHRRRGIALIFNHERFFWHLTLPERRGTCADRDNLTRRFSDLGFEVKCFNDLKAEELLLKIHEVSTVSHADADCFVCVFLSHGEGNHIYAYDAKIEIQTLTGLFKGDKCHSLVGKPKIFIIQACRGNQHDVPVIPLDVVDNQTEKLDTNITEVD
T3 sequence (P55212 194-293 K284A): T1 sequence (P55212 194-293 K284A limits assumed)
As to the kind of experiment: C13 dose-response, fluorescence-based activity assay on Casp6-K284A. It is filed as biochemical. To be noted: Casp6-K284A; read-out: IC50 of C13 for Casp6-K284A (Fig. 4f).
Source text: as §2, with “sticks).” for “sticks). Right: predicted interactions with Casp6 allosteric pocket residues (pink balls polar, circled blue or red for basic and acidic, respectively. Green balls = hydrophobic. Dotted-arrow: blue and green for backbone and sidechain hydrogen-bond interactions, respectively. Blue shade = solvent exposed area).”

The test system of assay [2] is Casp6-K284A. The assay is described as above. Format: biochemical, human.
Source text: as §2, with “sticks).” for “sticks). Right: predicted interactions with Casp6 allosteric pocket residues (pink balls polar, circled blue or red for basic and acidic, respectively. Green balls = hydrophobic. Dotted-arrow: blue and green for backbone and sidechain hydrogen-bond interactions, respectively. Blue shade = solvent exposed area).”

Setting [3] is: Ac-VEID-AFC hydrolysis, increasing substrate and C13 concentrations.
The mark [4] stands for this setting: global fit to noncompetitive (mixed) model, 0–50 µM C13, mean ± SE.

Broadly, the IC50 is the midpoint of a concentration-inhibition curve. Broadly, the Ki is a dissociation constant, usually derived from enzyme kinetics or from competition with a known ligand. Low readings indicate a stronger hold on the target, high ones a looser hold on the target. On to `COC(=O)c1cc(CNC(=O)C2Cc3ccccc3O2)cc(NC(=O)c2ccco2)c1` (stereo not shown) [Compound C13], for which the “fold higher IC50 for Casp6-K284A-LS-SS compared to Casp6-WT-LS-SS” value on Casp6-K284A-LS-SS came to 1.5 fold. In addition, the “fold higher Ki for Casp6-K284A-LS-SS compared to Casp6-WT-LS-SS” value at Casp6-K284A-LS-SS came to 1.6 fold. For the same molecule, the “inhibition model (best global fit), Casp6-K284A-LS-SS” value at Casp6-K284A-LS-SS (setting [3]) is “noncompetitive (mixed) model inhibition”. Also, the 50% inhibitory concentration (IC50) at Casp6-K284A-LS-SS (copurified LS and SS, read-out: IC50 of C13 for Casp6-K284A-LS-SS (Fig. 4g)) is 47.8 ± 6 µM; on Casp6-WT-LS-SS (copurified LS and SS, read-out: IC50 of C13 for Casp6-WT-LS-SS (Fig. 4g)), 31.8 ± 6.7 µM; at Casp6-K284A [1], 46.7 ± 18.5 µM. Besides, the Ki on Casp6-K284A-LS-SS (setting [4]) was 11.8 µM; on Casp6-WT-LS-SS (setting [4]) it was 7.45 µM and 7.5 µM. The “inhibition model (best global fit), Casp6-WT-LS-SS” value at Casp6-WT-LS-SS (setting [3]) is “noncompetitive (mixed) model inhibition”. For the same molecule, the “fold higher IC50 for Casp6-K284A than Casp6-WT” value with Casp6-K284A [2] is given as ~ 2.7 fold.
